# Experiment: Photodegradation over time under excitation with laser light at 532 nm
# Format: physicochemical
# Conditions: after 350 minutes, FIG. 3
# Protocol: The emission of nanoparticles is 15-folds higher than the emission of the solution. Moreover, the photodegradation of fluorescent nanoparticles over time was compared to the photodegradation of the cyanine in solution. […] It observed that the cyanine immobilized within the nanoparticle undergoes a 5% photodegradation after 350 minutes, whilst the cyanine dye in solution undergoes a 45% photodegradation within the same time.
smiles,measurement,value
"CO[Si](CCCN1/C(=C/C=C/C2=[N+](CCC[Si](OC)(OC)OC)c3ccc(S(=O)(=O)[O-])cc3C2(C)C)C(C)(C)c2cc(S(=O)(=O)[O-])ccc21)(OC)OC.[K+] [Compound 1, 1-propyltrimethoxysilane-1′-propyltrimethoxysilane-3,3,3,3′-tetramethyl-5,5′-disulfonate-indomonocarbocyanine potassium salt]",photodegradation (percentage of emission compared to time zero),45%

# Source: patent US8624035B2, “Functionalized cyanine having a silane linker arm, a method of preparing thereof and uses thereof” (Universita' Degli Studi di Torino, priority 2008, dated 2014)
